# In patent publication US10709708B2, “Method of treating cancer with a combination of MER tyrosine kinase inhibitor and an epidermal growth factor receptor (EGFR) inhibitor” (Emory University, priority 2016, dated 2020):
# Like-named read-outs stand apart in the source and are kept apart here.
# Assays:
# [1] = system: mutant EGFR NSCLC cells & EGFR TKI-resistant derivatives; test: Viable cell counts of mutant EGFR NSCLC cells and EGFR TKI-resistant derivatives; type: cell-based; settings: H1975, H1650 and AZD-9291 or erlotinib resistant derivatives
# Method: The indicated cell lines are shown in FIG. 15A (H1975), FIG. 15B (H1650), FIG. 15C (H1975^AZD-R), and FIG. 15D (H1650^AZD-R).
# The indicated cell lines are shown in FIG. 16A (H1975), FIG. 16B (H1650), FIG. 16C (H4011), FIG. 16D (H1975^AZD-R), FIG. 16E (H1650^AZD-R), and FIG. 16F (H1650^ERL-R).
# NSCLC cells were cultured in the presence of the indicated compound(s) or an equivalent volume of vehicle (DMSO) only and the numbers of viable cells were counted at the indicated intervals using the Incucyte ZOOM live cell imaging system.
# A549 cells = test: Expansion of A549 cells in culture, Incucyte ZOOM live cell imaging; type: cell-based; settings: for reduction of A549 cell number: agents alone or together at the same concentrations
# [2] = system: mutant EGFR NSCLC cell lines; settings: EGFR mutation incl. T790M (H1975); 1 μM; as reported by Walter; cited from earlier work
# [3] = system: wild-type EGFR NSCLC cell lines; settings: as reported by Walter; cited from earlier work
# A549 shMERTK cells = test: Confluence of A549 shMERTK cells, Incucyte ZOOM live cell imaging; type: cell-based; settings: A549 shMERTK cell line, CO-1686 vs vehicle
# Text: FIGS. 5A and 5B show inhibition of MERTK using shRNA sensitized A549 cells to CO-1686. FIG. 5A is an immunoblot showing decreased MERTK expression mediated by shRNA in A549 cells. […] FIG. 6A is an immunoblot showing decreased EGFR expression mediated by siRNA in A549 and […] cells.
# [4] = system: wild-type EGFR NSCLC cell lines; test: Cell counts of wild-type EGFR NSCLC cell lines after 60 hours; type: cell-based
# Method: (§1) NSCLC and normal bronchial epithelial (BEAS2B) cell lines were cultured with CO-1686 for 60 hours and confluency was determined (BEAS2B) or cells were counted (NSCLC cell lines) and normalized to vehicle-controls.
# The indicated NSCLC cell lines were treated with CO-1686 and/or MRX-2843 for 60 hours and cells were counted and normalized to vehicle controls.
# [5] = system: mutant forms of EGFR including T790M; settings: Walter et al. 2013; cited from earlier work
# [6] = system: mutant EGFR NSCLC cell lines; test: Cell counts of mutant EGFR NSCLC cell lines; type: cell-based; settings: mutant EGFR NSCLC cell lines (H1650, H4006, PC9, HCC827)
# Method: as §1
# For treatment with CO-1686, the cell lines are shown in FIG. 9A (H1650), FIG. 9B (H4006), and FIG. 9C (PC9). For treatment with AZD-9291, the cell lines are shown in FIG. 9D (H1650) and FIG. 9E (HCC827). The indicated NSCLC cell lines were treated with CO-1686, AZD-9291, and/or MRX-2843 and cells were counted every 2 hours.
structure (smiles),measurement,setting,value
CN1CCC(CNc2ccc3ncc(-c4cccc(OC(F)(F)F)c4)n3n2)CC1 [SGI-1776],anti-tumor activity in combination with MRX-2843,[1],synergistic anti-tumor activity
CN1CCN(Cc2ccc(-c3cn([C@H]4CC[C@H](O)CC4)c4nc(NCCC5CC5)ncc34)cc2)CC1 [MRX-2843],reduction of A549 cell number,A549 cells; A549 cells,13.2±4.1%
"C=CC(=O)Nc1cccc(Nc2nc(Nc3ccc(N4CCN(C(C)=O)CC4)cc3OC)ncc2C(F)(F)F)c1 [CO-1686, Rociletinib]",sensitivity of cell lines to CO-1686,[2],clear sensitivity
same,sensitivity of cell lines to CO-1686,[3],resistant
same,reduction in cell number,A549 shMERTK cells,23.4±0.22%
same,interaction with MRX-2843,[4]; broad spectrum of wild-type EGFR NSCLC cell lines,synergizes
same,sensitivity of cell lines to CO-1686,[4]; wild-type EGFR cell lines compared to mutant EGFR lines,resistant
same,IC50,[5],21 nM
same,reduction of A549 cell number,A549 cells; A549 cells,20.9±5.7%
same,reduction in cell number,"A549 cells; wild-type A549 cells, CO-1686 vs vehicle, confluence",9.9±2.89%
same,interaction with MRX-2843,[6],synergize
"C=CC(=O)Nc1cc(Nc2nccc(-c3cn(C)c4ccccc34)n2)c(OC)cc1N(C)CCN(C)C [AZD-9291, Osimertinib]",interaction with MRX-2843,"A549 cells; A549 cells, combined with MRX-2843",synergized
same,interaction with MRX-2843,[6],synergize
Clc1ccc(C2(c3ccc(-c4cn[nH]c4)cc3)CCNCC2)cc1 [AT7867],anti-tumor activity in combination with MRX-2843,[1],synergistic anti-tumor activity
Nc1nc(Nc2ccc3c(c2)CCC(N2CCCC2)CC3)nn1-c1cc2c(nn1)-c1ccccc1CCC2 (stereo not drawn) [R428],interaction with CO-1686,"A549 cells; A549 cells, combined with CO-1686",synergized
